This is an account of results in patent publication US11124479B2, “Oligopyrroles as antagonists of islet amyloid polypeptide oligomerization” (New York University, priority 2017, dated 2021).

Molecules are shown by their SMILES.

One experiment addresses T1, Aβ42 (Homo sapiens, UniProt P05067).
T1 construct: purchased
The experiment is described as follows: ThT kinetic assay of Aβ42 fibrillation (specificity assay). Format: biochemical. On the procedure:
(§1) Kinetic assays were conducted on a FlexStation 3 Multi-Mode Microplate reader from Molecular Devices (Sunnyvale, Calif.). Experiments were conducted in triplicate in a 96-well plate with a final volume of 200 μL per well. Every measurement was an average of 50 readings. The aggregation of IAPP was initiated by its addition from a stock solution (1 mM in DMSO) to phosphate buffer. The stoichiometry ratio for ThT to IAPP was 0.5:1. Peptide aggregation was monitored by ThT fluorescence (λex=445 nm and λem=485 nm). The blank sample contained all the components of the peptide samples except peptide. The sample data were processed by subtracting the blank and renormalizing the fluorescence intensity by setting the maximum value to 1.
(§2) Kinetic assays in the presence of the compounds of the invention were conducted under the same conditions. Small molecules were added from a stock solution (1 mM or 10 mM in DMSO) to keep the final concentration of DMSO less than 1.0% (v/v). Small molecules were added to the wells with ThT and buffer and mixed gently with a pipette before adding IAPP. To keep the conditions identical, an equal amount of DMSO was added to the wells with IAPP only reactions. For the aggregation kinetics of Aβ42, the peptide was dissolved in 1N NaOH (0.5-1 mM) and vortexed for 2 min. to ensure the complete solubility. The aggregation of 3 μM Aβ42 was initiated by addition of peptide from a stock solution (in 1 N NaOH, 0.5-1 mM) to phosphate buffer.
(§3) Kinetic profiles were processed using Origin (version 9.1). Kinetic curves were fit using the built-in sigmoidal fit. Each run was fit independently to extract the t50 (time required to reach 50% of the maximum fluorescence intensity). Error bars represent standard deviations from the mean of at least three independent experiments.
To test the specificity of ADH-101 towards IAPP, the binding interaction of ADH-101 with Aβ peptide was investigated. […]

The target of experiment [1] is T2, islet amyloid polypeptide (IAPP) (Homo sapiens, UniProt P10997).
T2 construct: IAPP is a 37 residue neuropancreatic hormone peptide; purchased Anaspec (Fremont, Calif.)
T2 sequence (P10997 34-70 limits assumed): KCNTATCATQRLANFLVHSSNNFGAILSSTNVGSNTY
The experiment is described as follows: ThT-based kinetic assay of IAPP fibrillation. Format: biochemical. To be noted: for relative t50 of IAPP fibrillation versus control reaction: 15 μM IAPP, equimolar ratio.
Text: The aggregation kinetics of IAPP was probed using an exogenous reporter, Thioflavin T (ThT), which quantifies the amount of fibers in solution without perturbing the aggregation kinetics of IAPP (see Wolfe, L. S.; Calabrese, M. F.; Nath, A.; Blaho, D. V.; Miranker, A. D.; Xiong, Y. Proc. Natl. Acad. Sci. U.S.A. 2010, 107, 16863-16868; Levine, H. Protein Sci. 1993, 2, 404-410). […] The kinetics of IAPP fibrillation was quantified using the reaction midpoint, t50, which is the time required to reach 50% fluorescence in the fibrillation reaction (FIG. 8).
as §1, §2, §3
The membrane model system selected for the amyloid assays is a mixture of DOPG (dioleoylphosphatidylglycerol) and DOPC (dioleoylphosphatidylcholine) at 3:7 molar ratio, which mimics physiological conditions (Ono, K.; Condron, M. M.; Teplow, D. B. Proc. Natl. Acad. Sci. U.S.A. 2009, 106, 14745-14750). The lipid catalyzed aggregation of IAPP was initiated by adding freshly prepared 15 μM IAPP (1 mM stock solution in DMSO) to the phosphate buffer (50 mM NaPi, 150 mM KCl, pH 7.4) containing 15 μM ThT and 750 μM of unilamellar liposomes (LUVs, DOPG:DOPC, 3:7, d=100 nm).

T1 sequence (P05067 672-713 limits assumed): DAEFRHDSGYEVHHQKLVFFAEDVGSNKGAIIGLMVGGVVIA

`CCOC(=O)c1cc(NC(=O)c2cc(NC(=O)c3cc([N+](=O)[O-])cn3CC(C)C)cn2CC(C)C)cn1CCC(=O)O` [ADH-101]: the “effect on Aβ42 fibrillation (in words)” value at Aβ42 is listed as “weak agonist”. In addition, the “relative t50 for Aβ42 amyloid fiber formation” value on Aβ42 (3 μM Aβ42, equimolar ratio) was 0.8 fold. The “t50 for the amyloid kinetics of Aβ42 in the presence of compound” value on Aβ42 (3 μM Aβ42, equimolar ratio, Aβ42 alone 4.22±0.51 h) worked out at 3.41 ± 0.32 h. Besides, the “antagonist of oligomerization, fibrillation, and/or aggregation of IAPP (in words)” value in experiment [1] is on record as “effective antagonist”. Also, the “inhibition of IAPP aggregation” value in experiment [1] (de novo (no lipid membrane), fivefold excess) is given as “completely abolishes”. Besides, in experiment [1] (de novo / lipid free), the “relative t50 of IAPP fibrillation versus control reaction” value was found to be 4.4 fold. Besides, the “change in the intensity of ThT” value in experiment [1] (identical conditions without IAPP) is on record as “no significant change”. Besides, in experiment [1] (lipid catalyzed (750 μM LUVs, DOPG:DOPC 3:7)), the “relative t50 of IAPP fibrillation versus control reaction” value worked out at 2.7 fold. In experiment [1] (lipid catalyzed conditions), the “fold better inhibitor of IAPP fibrillation than Acid Fuchsin” value came to 3.5 fold, the “fold better inhibitor of IAPP fibrillation than Curcumin” value worked out at 2.2 fold and the “fold better inhibitor of IAPP fibrillation than EGCG” value amounted to 3.3 fold. The “inhibition of IAPP fibrillation” value in experiment [1] (lipid catalyzed, stoichiometric ratio 10:1 (ADH-101:IAPP)) was “completely inhibits”.
